US4108857A, “Imidazolylmethyl methanobenzazocines” (Sterling Drug Inc., priority 1977, dated 1978)
In brackets after ≈: the same amount, converted by molar mass. Read-outs that look alike come from different tables or passages of the source.

How the values were obtained:
[1] = system: maximal electroshock seizures; assay: anti-maximal electroshock seizure test in mice; format: in vivo; conditions: for ED50: Mus musculus
Method: The preferred species of this invention, i.e. the compounds having in free base form Formula II, are useful as analgesic agents administered orally or parenterally to humans. […] In the anti-maximal electroshock seizure test, the compounds were administered intraperitoneally or perorally 30 or 90 minutes prior to the application of 50 milliamperes of alternating current through corneal electrodes. Shock duration was 0.3 second. The criterion for anticonvulsant activity was the absence of the tonic hind leg extensor component of the seizure. In the anti-maximal pentylenetetrazol seizure test, the compounds were given intraperitoneally 30 or 90 minutes prior to the rapid intravenous injection of 50 mg. per kg. of pentylenetetrazol. Failure to display tonic hind leg extensor seizures was again the criterion for drug action. Representative results, expressed as ED50 (mg./kg.), which were obtained with my new compounds in these two tests are as follows: […]

[2] = system: maximal pentylenetetrazol seizures; assay: anti-maximal pentylenetetrazol seizure test in mice; format: in vivo; conditions: Mus musculus
[3] = system: minimal pentylenetetrazol seizures; assay: anticonvulsant test against minimal pentylenetetrazol seizures; format: in vivo, mice; conditions: Mus musculus, oral, pentylenetetrazol 32.5 mg./kg. intravenously
Method: In anticonvulsant studies, against minimal pentylenetetrazol seizures, wherein the dose of pentylenetetrazol was only 32.5 mg./kg. (intravenously) and the ensuing convulsions were clonic, without a tonic hind leg extensor component, the oral ED50 values were: 30 minutes post-medication, 15 ± 4 mg./kg.; 90 minutes post-medication, 37 ± 6 mg./kg.

mice [4] = assay: inclined screen test in mice (skeletal muscle relaxation); format: in vivo; conditions: Mus musculus
mice [5] = assay: psychomotor activity studies in mice; format: in vivo
mice [6] = assay: diuresis in mice; format: in vivo; conditions: 12.5 mg./kg. and 25 mg./kg. i.p.
monkeys = assay: toxicology study in monkeys (oral, daily for 5 days); format: in vivo
Method: (§1) In a toxicology study, monkeys were medicated orally with 5 mg./kg. and 25 mg./kg. of the product of Example 1A each day for 5 days. […] There was considerable variability among the monkeys in the magnitude of the response. Symptoms lasted 2 to 5 hours. […] Blood SGO-T, alkaline phosphatase, and BUN were all normal.

acute toxicity, mouse = conditions: in vivo; for LD50 at 168 h: 7 day
Method: as §1

acute toxicity, rat = conditions: in vivo; for LD50 at 168 h: 7 day
Method: as §1

humans = assay: analgesic use in humans; format: in vivo
Method: For example, administered orally, the effective dosage of the racemic cis form of this compound in humans has been determined to be about 0.1 to 0.5 mg. of drug per kg. of body weight per day, at 5-25 mg. per dose; preferably about 0.2 to 0.4 mg./kg./day, for instance a total of […] at 20 mg./dose.

pH of solution = format: physicochemical; conditions: hydrochloride; 0.42 ml. of N/2 hydrochloric acid and 0.58 ml. of water
[7] = precipitation on gradual pH adjustment of the aqueous solution; format: physicochemical; conditions: 1 percent solution, N/10 sodium hydroxide solution, pH 7.0
[8] = precipitation on diluting ethyl alcohol solution with four volumes of water; format: physicochemical; conditions: 5 percent (w/v) solution in 95 percent ethyl alcohol
[9] = solubility in water or aqueous acid; conditions: dilute hydrochloric acid
[10] = 5 mg./kg. orally each day for 5 days
[11] = iv, I.V., read-out: LD50 ± s.e.

SMILES: C[C@H]1[C@H]2Cc3ccccc3[C@]1(C)CCN2CC1CC1 (relative stereo) [Example 1A, racemic 1,2,3,4,5,6-hexahydro-3-cyclopropylmethyl-cis-6,11-dimethyl-2,6-methano-3-benzazocine]
- Anti-Maximal Electroshock ED50 ([1]; IP, 90'): INACT.
- ED50 ([1]; 0.5 h, IP, 30'): 11.2 ± 2 mg/kg
- ED50 ([1]; 0.5 h, PO, 30'): 26.2 ± 7 mg/kg
- ED50 ([1]; 1.5 h, PO, 90'): 35.5 ± 3 mg/kg
- ED50 ([2]; 0.5 h, IP, 30'): 2.3 ± 7 mg/kg
- ED50 ([2]; 0.5 h, PO, 30'): 3.3 ± 0.8 mg/kg
- ED50 ([2]; 1.5 h, IP, 90'): 5.3 ± 10 mg/kg
- ED50 ([2]; 1.5 h, PO, 90'): 6.2 ± 1 mg/kg
- ED50 ([3]; 0.5 h, 30 minutes post-medication): 15 ± 4 mg/kg
- ED50 ([3]; 1.5 h, 90 minutes post-medication): 37 ± 6 mg/kg
- ED50 (mice [4]; 1 h, oral, sixty minutes after medication, read-out: dose at which 50 percent of the mice had fallen from a 60° inclined screen): 38.2 ± 11 mg/kg
- ED50 (mice [4]; ip, intraperitoneal, read-out: ED50, 60° inclined screen): 17.2 mg/kg
- toxic signs at high dose (mice [5]; 128 mg./kg. p.o.): Ataxia, loss of righting reflex, and death occurred
- psychomotor activity pattern (mice [5]; 8-128 mg./kg. p.o.): stimulation at lower doses and depression at high doses
- diuresis (mice [6]): significant diuresis
- urine produced (mice [6]): dilute urine without electrolyte concentration
- symptoms (monkeys; [10]): Some ataxia with a decrease in activity
- tolerability (monkeys; [10]): well tolerated
- symptoms (monkeys; 25 mg./kg. orally each day for 5 days): more marked decrease in spontaneous activity along with ataxia and salivation
- BUN (monkeys; oral): normal
- Blood SGO-T (monkeys; oral): normal
- alkaline phosphatase (monkeys; oral): normal
- body weight (monkeys; oral): Some weight loss occurred
- LD50 at 24 h (acute toxicity, mouse; ip, I.P.): 65 ± 7 mg/kg
- LD50 at 168 h (acute toxicity, mouse; ip, I.P.): 65 ± 7 mg/kg
- LD50 at 24 h (acute toxicity, mouse; iv, I.V.): 20 ± 1 mg/kg
- LD50 at 168 h (acute toxicity, mouse; iv, I.V.): 20 ± 1 mg/kg
- LD50 at 24 h (acute toxicity, mouse; po, P.O.): 155 ± 17 mg/kg
- LD50 at 168 h (acute toxicity, mouse; po, P.O.): 155 ± 17 mg/kg
- LD50 at 24 h (acute toxicity, rat; [11]): 17 ± 1 mg/kg
- LD50 at 168 h (acute toxicity, rat; [11]): 17 ± 1 mg/kg
- LD50 at 24 h (acute toxicity, rat; po, P.O., read-out: ALD50): 200 mg/kg
- LD50 at 168 h (acute toxicity, rat; po, P.O., read-out: ALD50): 200 mg/kg
- psychotomimetic effects in humans (humans; analgesically effective doses): very few, if any, psychotomimetic effects
- central nervous system effects in humans (humans; effective therapeutic analgesic doses): only minimal central nervous system effects
- analgesic activity in humans (humans; humans): strong analgesic
- pH of 1 percent solution in dilute hydrochloric acid (pH of solution): 1.5
- precipitation on adjusting to pH 7.0 [7]: no precipitate formed
- precipitation on dilution with four volumes of water [8]: a precipitate formed
- solubility [9]: 10000 µg/mL (≈ 39.2 mM)
